1 compound from patent US20070117852A1, “(Hetero)cyclyl carboxanilides for controlling harmful fungi” (priority 2003, published 2007) can be followed below.

This test deals with brown rust of wheat (Puccinia recondita). The test can be described thus: Protective treatment against brown rust of wheat (plants sprayed the day before inoculation). The class given is in vivo, Puccinia recondita on wheat seedlings cultivar "Kanzler". The settings on record: 63 ppm active compound, assessed visually after a further 7 days in greenhouse, untreated 90. As to the method: The active compounds were prepared as a stock solution comprising 0.25% by weight of active compound in acetone or dimethyl sulfoxide (DMSO). 1% by weight of the emulsifier Uniperol® EL (wetting agent having emulsifying and dispersant action based 10 on ethoxylated alkylphenols) was added to this solution, and the mixture was diluted with water to the desired concentration.
Leaves of potted wheat seedlings of the cultivar “Kanzler” were sprayed to runoff point with an aqueous suspension having the concentration of active compound stated below. The next day, the treated plants were dusted with spores of brown rust of wheat (Puccinia recondita). The plants were then placed in a chamber with high atmospheric humidity (90 to 95%), at 20-22° C., for 24 hours. During this time, the spores germinated and the germinal tubes penetrated into the leaf tissue. The next day, the test plants were returned into the greenhouse and cultivated at temperatures between 20 and 22° C. and at 65 to 70% relative atmospheric humidity for a further 7 days. The extent of the rust development on the leaves was then determined visually.

With `CC(=NOCc1ccccc1)C(C)Oc1ccccc1NC(=O)c1cccnc1Cl` (stereo not shown) [IA-1, 2-Chloro-N-(2-(2-benzyloxyimino-1-methyl-n-propoxy)phenyl)nicotinamide], the “Infection at 63 ppm (% of leaf area)” value is 10 % of leaf area.
